The record followed here is patent publication US20260285853A1, “COMPOUNDS AND METHODS FOR MODULATING SPLICING” (REMIX THERAPEUTICS INC., priority 2023, published 2026).

Format in all cases: cell-based
Experiment [1] relates to MYB mRNA. As to the kind of experiment: Splicing RT-qPCR assay, canonical (CJ) and alternative (AJ) junction mRNA, K562 cells. The conditions noted are these: Homo sapiens, K562.3 cells, 24 hours; for AC50: read-out: MYB AJ (AC50, increase in AJ mRNA); for IC50: read-out: MYB CJ (IC50, decrease in CJ mRNA). As for the experimental part:
(§1) Compounds described herein were used to modulate RNA transcript abundance in cells. The expression of a target mRNA was measured by detecting the formation of an exon-exon junction in the canonical transcript (CJ). A compound mediated exon-inclusion event was detected by observing an increase in formation of a new junction with an alternative exon (AJ). Real-time qPCR assays were used to detect these splicing switches and interrogate the potency of various compounds towards different target genes. A high-throughput real time quantitative PCR (RT-qPCR) assay was developed to measure these two isoforms of the mRNA (CJ and AJ) for exemplary genes, such as HTT, SMN2, and MYB, together with a control housekeeping gene, GAPDH or GUSB or PPIA, used for normalization. Briefly, the A673 or K562 cell line was treated with various compounds described herein (e.g., compounds of Formula (I)). After treatment, the levels of the HTT, MYB, or SMN2 mRNA targets were determined from each sample of cell lysate by cDNA synthesis followed by qPCR.
(§2) • Cells-to-CT 1-step kit: ThermoFisher A25602, Cells-to-CT lysis reagent: ThermoFisher 4391851C, TaqMan™ Fast Virus 1-Step Master Mix: ThermoFisher 4444436 • GAPDH: VIC-PL, ThermoFisher 4326317E (Assay: Hs99999905_m1)—used for K562/suspension cell lines • GUSB: VIC-PL, ThermoFisher 4326320E (Assay: Hs99999908_m1)—used for K562/suspension cell lines • PPIA: VIC-PL, ThermoFisher 4326316E (Assay: Hs99999904_m1)—used for A673/adherent cell lines
(§3) The K562 cell line was cultured in IMDM with 10% FBS. For K562, cells were diluted with full growth media and plated in either a 96-well plate (50,000 cells in 50 uL media per well) or a 384-well plate (8,000-40,000 cells in 45 uL media per well). An 11-point 3-fold serial dilution of the compounds were made in DMSO then diluted in media in an intermediate plate. Compound was transferred from the intermediate plate to the cell plate with the top dose at a final concentration of 10 uM in the well. Final DMSO concentration was kept at or below 0.25%. Final volume was 100 uL for 96-well plate and 50 uL for 384-well plate. The cell plate was then placed in an incubator at 37° C. with 5% CO2 for 24 hours.
(§4) The cells were then gently washed with 50 uL-100 uL cold PBS before proceeding to addition of lysis buffer. 30 uL-50 uL of room temperature lysis buffer with DNAse I (and optionally RNAsin) was added to each well. Cells were shaken/mixed thoroughly at room temperature for 5-10 minutes for lysis to take place and then 3 uL-5 uL of room temperature stop solution was added and wells were shaken/mixed again. After 2-5 minutes, the cell lysate plate was transferred to ice for RT-qPCR reaction setup. The lysates could also be frozen at −80° C. for later use.
(§5) In some cases, a direct lysis buffer was used. An appropriate volume of 3× lysis buffer (10 mM Tris, 150 mM NaCl, 1.5%-2.5% Igepal and 0.1-1 U/uL RNAsin, pH 7.4) was directly added to either K562 or A673 cells in media and mixed by pipetting 3 times. The plates were then incubated at room temperature with shaking/rocking for 20-50 minutes to allow for lysis to take place. After this time, the cell lysate plate was transferred to ice to set up for the RT-qPCR reactions. The lysates could also be frozen at −80° C. for later use.
(§6) To set up 10 uL RT-qPCR reactions, cell lysates were transferred to 384-well qPCR plates containing the master mix according to the table below. The plates were sealed, gently vortexed, and spun down before the run. The volumes were adjusted accordingly in some instances where the reaction was carried in 20 uL. The table below summarizes the components of the RT-qPCR reactions:
(§7) The RT-qPCR reaction was performed using a QuantStudio (ThermoFisher) under the following fast cycling conditions. All samples and standards were analyzed at least in duplicate. In some instances, bulk room temperature (RT) step of 5-10 minutes was completed for all plates before proceeding with qPCR. […]

In experiment [2] the test system is HTT mRNA. Described as above. The following applies: Homo sapiens, K562.3 cells, 24 hours; for AC50: read-out: HTT AJ (AC50, increase in AJ mRNA); for IC50: read-out: HTT CJ (IC50, decrease in CJ mRNA). As for the experimental part: as §1, §2, §3, §4, §5, §6, §7
Experiment [3] relates to MYB mRNA. As to the kind of experiment: Gene panel canonical junction qPCR assay, decrease in CJ mRNA, Table 3. The conditions noted are these: decrease in canonical junction (CJ) mRNA, gene panel qPCR, Table 3. Summed up: (§8)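 Eleven-point dose responses from 10 uM final, 24 h, DMSO ≤0.25%, in A673 or K562 cells. Relative quantification by 2^(−ΔΔCt) against housekeeper and vehicle was converted to percent response over fixed ΔCt windows and fitted to yield IC50.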

Experiment [4] deals with HTT mRNA. Described as above. The conditions noted are these: decrease in canonical junction (CJ) mRNA, gene panel qPCR, Table 3. Summed up: as §8
In experiment [5] the test system is SMN2 mRNA. The experiment is described as above. The conditions noted are these: decrease in canonical junction (CJ) mRNA, gene panel qPCR, Table 3. Summed up: as §8
In experiment [6] the test system is SH-SY5Y (human neuroblastoma) cells. As to the kind of experiment: Cell viability, Cell Titer Glo 2.0 assay. The following applies: read-out: Viability SHSY5Y.3 GI50. A digest of the protocol: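 Following a 72 h incubation (37 °C, 5% CO2, 0.1% DMSO final), compound toxicity toward SH-SY5Y cells was quantified by CellTiter-Glo 2.0.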
Experiment [7] concerns MYB mRNA. As to the kind of experiment: Splicing RT-qPCR assay (THP), Table 2A. The conditions noted are these: Table 2A (THP); for AC50: AJ mRNA increase, read-out: MYB AJ (increase in alternative junction mRNA, AC50); for IC50: CJ mRNA decrease, read-out: MYB CJ (decrease in canonical junction mRNA, IC50).

SMILES strings stand for the structures. Some results are limits rather than exact numbers.

Consider `CNC12CC(C1)N(c1ccc(C(=O)Nc3cc(F)c4nc(C)cn4c3)c3nn(C)cc13)C2` [Compound 135, N-(8-fluoro-2-methyl-imidazo[1,2-a]pyridin-6-yl)-2-methyl-4-[4-(methylamino)-2-azabicyclo[2.1.1]hexan-2-yl]-indazole-7-carboxamide], for which the AC50 in experiment [1] is 100 to 1000 nM; in experiment [2] it was 1000 to 10000 nM; in experiment [7] it was below 100 nM. Further, the IC50 in experiment [1] is 100 to 1000 nM; in experiment [2], 100 to 1000 nM; in experiment [3] it was 100 to 1000 nM; in experiment [4], 100 to 1000 nM; in experiment [5], below 100 nM; in experiment [7] it was 100 to 1000 nM. The GI50 in experiment [6] fell in the range of 100 to 1000 nM.
In the case of `CCNC12CC(C1)N(c1ccc(C(=O)Nc3cc(F)c4nc(C)cn4c3)c3nn(C)cc13)C2` [Compound 136, 4-[4-(ethylamino)-2-azabicyclo-[2.1.1]hexan-2-yl]N-(8-fluoro-2-methylimidazo[1,2-a]pyridin-6-yl)-2-methyl-indazole-7-carboxamide], the AC50 in experiment [1] was 100 to 1000 nM; in experiment [2] it was 1000 to 10000 nM; in experiment [7], 100 to 1000 nM. In addition, the IC50 is 100 to 1000 nM in experiment [1]; 1000 to 10000 nM in experiment [2]; 100 to 1000 nM in experiment [3]; 1000 to 10000 nM in experiment [4]; below 100 nM in experiment [5]; 100 to 1000 nM in experiment [7]. In addition, the GI50 in experiment [6] lay in the range of 100 to 1000 nM.
In the case of `CN[C@H]1CCN(c2c(OC)cc(C(=O)Nc3cc(F)c4nc(C)cn4c3)c3nn(C)cc23)C1` [Compound 137, N-(8-fluoro-2-methyl-imidazo[1,2-a]pyridin-6-yl)-5-methoxy-2-methyl-4-[(3S)-3-(methylamino)pyrrolidin-1-yl]indazole-7-carboxamide], the AC50 in experiment [1], in experiment [2] and in experiment [7] was above 10000 nM each time. In addition, the IC50 in experiment [1] is above 10000 nM; in experiment [2], above 10000 nM; in experiment [3] it was above 10000 nM; in experiment [4], above 10000 nM; in experiment [5] it was 100 to 1000 nM; in experiment [7] it was above 10000 nM. In addition, the GI50 in experiment [6] fell in the range of 1000 to 10000 nM.
As for `CN[C@@H]1CCN(c2ccc(C(=O)Nc3cc(F)c4nn(C)cc4c3)c3nn(C)cc23)C1` [Compound 140, N-(7-fluoro-2-methyl-indazol-5-yl)-2-methyl-4-[(3R)-3-(methylamino)pyrrolidin-1-yl]indazole-7-carboxamide], the AC50 in experiment [1] fell in the range of 100 to 1000 nM; in experiment [2], 1000 to 10000 nM; in experiment [7] it was 100 to 1000 nM. Also, the IC50 in experiment [1] is 100 to 1000 nM; in experiment [2], 1000 to 10000 nM; in experiment [3], 100 to 1000 nM; in experiment [4], 1000 to 10000 nM; in experiment [5], below 100 nM; in experiment [7] it was 100 to 1000 nM. The concentration for 50% growth inhibition (GI50) in experiment [6] lay within 1000 to 10000 nM.
`CCN[C@H]1CCN(c2cc(O)c(C(=O)Nc3cc(F)c4nc(C)cn4c3)c3nn(C)cc23)C1` [Compound 143, 4-[(3S)-3-(ethylamino)pyrrolidin-1-yl]-N-(8-fluoro-2-methyl-imidazo[1,2-a]pyridin-6-yl)-6-hydroxy-2-methyl-indazole-7-carboxamide]: the AC50 in experiment [1] was below 100 nM; in experiment [2], 1000 to 10000 nM; in experiment [7] it was below 100 nM. For the same molecule, the IC50 in experiment [1] is below 100 nM; in experiment [2] it was 1000 to 10000 nM; in experiment [3], below 100 nM; in experiment [4], 1000 to 10000 nM; in experiment [5] it was below 100 nM; in experiment [7], below 100 nM. Moreover, the GI50 in experiment [6] was in the range of 100 to 1000 nM.
Take `CCN[C@H]1CCN(c2cc(OC)c(C(=O)Nc3cc(F)c4nc(C)cn4c3)c3nn(C)cc23)C1` [Compound 146]: the concentration at half-maximal activity (AC50) in experiment [1], in experiment [2] and in experiment [7] was above 10000 nM in each case. The IC50 is above 10000 nM in experiment [1]; above 10000 nM in experiment [2]; above 10000 nM in experiment [3]; above 10000 nM in experiment [4]; 1000 to 10000 nM in experiment [5]; above 10000 nM in experiment [7]. The 50% growth inhibitory concentration (GI50) in experiment [6] was above 10000 nM.
Take `Cc1cn2cc(NC(=O)c3ccc(N4CCC5NCCC5C4)c4cn(C)nc34)cc(F)c2n1` (stereo not drawn) [Compound 169, N-(8-fluoro-2-methyl-imidazo[1,2-a]-pyridin-6-yl)-2-methyl-4-(octahydro-pyrrolo[3,2-c]pyridin-5-yl)indazole-7-carboxamide 2,2,2-trifluoroacetate]: the concentration at half-maximal activity (AC50) in experiment [1] is 100 to 1000 nM; in experiment [2], 1000 to 10000 nM; in experiment [7] it was below 100 nM. In addition, the IC50 was 100 to 1000 nM in experiment [1]; 1000 to 10000 nM in experiment [2]; 100 to 1000 nM in experiment [3]; 1000 to 10000 nM in experiment [4]; below 100 nM in experiment [5]; 100 to 1000 nM in experiment [7]. In addition, the concentration for 50% growth inhibition (GI50) in experiment [6] was in the range of 1000 to 10000 nM.
Take `CCNC1CCN(c2cc(F)c(C(=O)Nc3cn4cc(C)nc4c(F)c3OC)c3[nH]ncc23)CC1` [Compound 173, 4-[4-(ethylamino)-1-piperidyl]-6-fluoro-N-(8-fluoro-7-methoxy-2-methyl-imidazo[1,2-a]pyridin-6-yl)-1H-indazole-7-carboxamide]: the concentration at half-maximal activity (AC50) in experiment [1] was below 100 nM; in experiment [2], 1000 to 10000 nM; in experiment [7] it was below 100 nM. The IC50 in experiment [1] was below 100 nM; in experiment [2], 1000 to 10000 nM; in experiment [3], below 100 nM; in experiment [4], 1000 to 10000 nM; in experiment [5] it was below 100 nM; in experiment [7], below 100 nM. For the same molecule, the GI50 in experiment [6] is below 100 nM.
In the case of `CCNC1CCN(c2cc(F)c(C(=O)Nc3cc(F)c4nc(C)cn4c3)c3[nH]ncc23)CC1` [Compound 174, 4-[4-(ethylamino)-1-piperidyl]-6-fluoro-N-(8-fluoro-2-methyl-imidazo-[1,2-a]pyridin-6-yl)-1H-indazole-7-carboxamide], the AC50 in experiment [1] was 100 to 1000 nM; in experiment [2], 1000 to 10000 nM; in experiment [7], below 100 nM. The IC50 in experiment [1] was 100 to 1000 nM; in experiment [2], 1000 to 10000 nM; in experiment [3], 100 to 1000 nM; in experiment [4], 1000 to 10000 nM; in experiment [5], below 100 nM; in experiment [7], 100 to 1000 nM. Also, the GI50 in experiment [6] was in the range of 100 to 1000 nM.
